Assays:
[1] = target: T1, JAK3 (Homo sapiens, UniProt P52333); experiment: Biochemical JAK kinase assay (LanthaScreen), JAK3; conditions: converted from pIC50 by Cheng-Prusoff; ATP at Km 1.6 μM; read-out: JAK 3 (pKi) (converted)
T1 construct: GST; purchased Life Technologies
T1 sequence (P52333 1-1124): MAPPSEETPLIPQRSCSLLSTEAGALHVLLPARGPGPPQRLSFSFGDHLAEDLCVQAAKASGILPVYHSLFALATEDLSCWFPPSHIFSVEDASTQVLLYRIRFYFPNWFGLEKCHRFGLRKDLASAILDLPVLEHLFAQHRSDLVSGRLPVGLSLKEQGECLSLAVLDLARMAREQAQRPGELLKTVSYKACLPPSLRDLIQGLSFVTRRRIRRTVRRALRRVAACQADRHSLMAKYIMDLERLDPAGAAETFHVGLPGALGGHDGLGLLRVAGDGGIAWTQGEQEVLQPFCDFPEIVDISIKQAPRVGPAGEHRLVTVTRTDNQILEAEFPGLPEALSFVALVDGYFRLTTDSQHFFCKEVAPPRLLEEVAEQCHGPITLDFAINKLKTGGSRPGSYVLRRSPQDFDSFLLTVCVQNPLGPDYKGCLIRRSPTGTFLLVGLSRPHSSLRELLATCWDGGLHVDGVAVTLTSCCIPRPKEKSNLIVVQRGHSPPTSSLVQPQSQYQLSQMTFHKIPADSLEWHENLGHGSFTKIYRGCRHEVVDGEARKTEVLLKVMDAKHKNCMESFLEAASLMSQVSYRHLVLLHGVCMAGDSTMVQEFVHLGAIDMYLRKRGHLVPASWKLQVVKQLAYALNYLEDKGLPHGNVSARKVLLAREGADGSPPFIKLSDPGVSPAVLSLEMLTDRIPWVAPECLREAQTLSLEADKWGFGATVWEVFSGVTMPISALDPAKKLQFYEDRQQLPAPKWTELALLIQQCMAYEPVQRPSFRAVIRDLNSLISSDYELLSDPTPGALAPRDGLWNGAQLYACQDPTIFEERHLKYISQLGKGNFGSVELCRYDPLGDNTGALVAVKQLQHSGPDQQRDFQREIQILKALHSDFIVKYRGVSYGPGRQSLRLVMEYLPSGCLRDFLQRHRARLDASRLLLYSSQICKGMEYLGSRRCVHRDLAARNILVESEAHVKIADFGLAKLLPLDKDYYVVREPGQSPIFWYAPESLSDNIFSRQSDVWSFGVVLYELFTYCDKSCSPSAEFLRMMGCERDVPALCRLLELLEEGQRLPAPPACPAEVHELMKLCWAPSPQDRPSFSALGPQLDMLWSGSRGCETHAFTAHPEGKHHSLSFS
Protocol: Assay 1: Biochemical JAK and Tyk2 Kinase Assays A panel of four LanthaScreen JAK biochemical assays (JAK1, 2, 3 and Tyk2) were carried in a common kinase reaction buffer (50 mM HEPES, pH 7.5, 0.01% Brij-35, 10 mM MgCl2, and 1 mM EGTA). Recombinant GST-tagged JAK enzymes and a GFP-tagged STAT1 peptide substrate were obtained from Life Technologies. Serially or discretely diluted compounds were pre-incubated with each of the four JAK enzymes and the substrate in white 384-well microplates (Corning) at ambient temperature for 1 h. ATP was subsequently added to initiate the kinase reactions in 10 μL total volume, with 1% DMSO. […] The plates were allowed to incubate at ambient temperature for 1 h before being read on the EnVision reader (Perkin Elmer). Emission ratio signals (520 nm/495 nm) were recorded and utilized to calculate the percent inhibition values based on DMSO and background controls. For dose-response analysis, percent inhibition data were plotted vs. compound concentrations, and IC50 values were determined from a 4-parameter robust fit model with the Prism software (GraphPad Software). Results were expressed as pIC50 (negative logarithm of IC50) and subsequently converted to pKi (negative logarithm of dissociation constant, Ki) using the Cheng-Prusoff equation.

[2] = test system: BEAS-2B human lung epithelial cells; assay type: cell-based; conditions: 48 h
Protocol: Assay 3: Cytotoxicity Assay A CellTiter-Glo luminescent cell viability/cytotoxicity assay was carried out in BEAS-2B human lung epithelial cells (ATCC) under the normal growth condition. […] On day 1 of the assay, cells were seeded at a 500 cells/well density in white 384-well tissue culture plates (Corning) with 25 μL medium, and were allowed to adhere overnight in the incubator. On day 2 of the assay, 5 μL of medium containing dose-responses of test compounds was added, and incubated at 37° C. for 48 h. 30 μL of CellTiter-Glo detection solution (Promega) was subsequently added, mixed on an orbital shaker for 5 min, and incubated for additional 10 min before being read on the EnVision reader. Luminescence signals were recorded and percent DMSO control values were calculated. For dose-response analysis, percent DMSO control data were plotted vs. compound concentrations to derive dose-response curves by line connecting each data point. […] Results were expressed as the negative logarithm of the CC15 value, pCC15. […] The pCC15 for compound (I) was 5.36.

For CCS(=O)(=O)N1[C@@H]2CCC[C@H]1C[C@H](N(C)c1nc(CO)c(F)c(Nc3cc(C)[nH]n3)n1)C2 [Compound (I), (2-(((1R,3s,5S)-9-(ethylsulfonyl)-9-azabicyclo[3.3.1]nonan-3-yl)(methyl)amino)-5-fluoro-6-((5-methyl-1H-pyrazol-3-yl)amino)pyrimidin-4-yl)methanol], the Ki [1] was 794 pM and the pCC15 [2] was 5.36.

From US10774080B2, “Pyrimidine compound as JAK kinase inhibitor” (THERAVANCE BIOPHARMA R&D IP, LLC, priority 2017, dated 2020)
